Test results from publication PMC6055169 (Proceedings of the National Academy of Sciences of the …, 2018).
Like-named read-outs stand apart in the source and are kept apart here. Blank lines part the entries; values can stand above or below the compound they belong to.

Assays:
Type in all cases: cell-based
[1] = target: T1, TRPV1 (Mus musculus, UniProt Q704Y3); details: HEK293-A, read-out: % reduction at 50 μM
[2] = target: T1, TRPV1; assay: Fluo-4 calcium imaging in TRPV1-transfected HEK293A cells, […]
[3] = target: T2, TRPA1 (Mus musculus, UniProt Q8BLA8); details: HEK293-A, read-out: % reduction at 50 μM
[4] = target: T2, TRPA1; details: HEK293-A, read-out: % reduction at 50 μM; remark: listed apart in the source
[5] = target: T1, TRPV1
[6] = target: T2, TRPA1; assay: Fluo-4 calcium imaging in transfected HEK293A cells, agonist at […]
[7] = target: T1, TRPV1; assay: as above
[8] = target: TRPV4 (Rattus norvegicus, UniProt Q9ERZ8); assay: as above
Chain of TRPV4 (Q9ERZ8 whole entry): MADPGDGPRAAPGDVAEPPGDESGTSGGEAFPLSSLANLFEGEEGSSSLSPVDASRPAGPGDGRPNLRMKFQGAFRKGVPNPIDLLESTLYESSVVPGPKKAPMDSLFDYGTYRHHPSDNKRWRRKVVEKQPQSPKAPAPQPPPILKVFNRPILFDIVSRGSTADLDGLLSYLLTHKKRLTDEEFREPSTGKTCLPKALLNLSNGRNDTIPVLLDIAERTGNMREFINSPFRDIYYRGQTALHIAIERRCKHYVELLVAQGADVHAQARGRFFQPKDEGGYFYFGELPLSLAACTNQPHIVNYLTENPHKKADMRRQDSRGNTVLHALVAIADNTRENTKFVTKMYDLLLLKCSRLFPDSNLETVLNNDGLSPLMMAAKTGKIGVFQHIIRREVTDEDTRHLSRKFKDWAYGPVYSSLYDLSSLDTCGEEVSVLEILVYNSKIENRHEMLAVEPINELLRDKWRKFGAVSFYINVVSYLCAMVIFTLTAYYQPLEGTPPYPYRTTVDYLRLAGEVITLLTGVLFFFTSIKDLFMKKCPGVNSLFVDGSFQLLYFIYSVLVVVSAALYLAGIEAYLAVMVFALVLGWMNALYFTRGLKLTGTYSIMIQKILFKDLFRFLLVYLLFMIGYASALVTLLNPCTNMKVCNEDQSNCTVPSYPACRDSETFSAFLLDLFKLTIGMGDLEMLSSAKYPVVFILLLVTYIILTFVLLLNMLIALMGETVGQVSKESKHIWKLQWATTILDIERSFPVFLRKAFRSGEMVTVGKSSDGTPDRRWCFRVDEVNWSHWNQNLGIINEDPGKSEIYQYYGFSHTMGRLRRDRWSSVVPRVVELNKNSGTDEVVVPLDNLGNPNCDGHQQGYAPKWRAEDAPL

T2 sequence (Q8BLA8 whole entry): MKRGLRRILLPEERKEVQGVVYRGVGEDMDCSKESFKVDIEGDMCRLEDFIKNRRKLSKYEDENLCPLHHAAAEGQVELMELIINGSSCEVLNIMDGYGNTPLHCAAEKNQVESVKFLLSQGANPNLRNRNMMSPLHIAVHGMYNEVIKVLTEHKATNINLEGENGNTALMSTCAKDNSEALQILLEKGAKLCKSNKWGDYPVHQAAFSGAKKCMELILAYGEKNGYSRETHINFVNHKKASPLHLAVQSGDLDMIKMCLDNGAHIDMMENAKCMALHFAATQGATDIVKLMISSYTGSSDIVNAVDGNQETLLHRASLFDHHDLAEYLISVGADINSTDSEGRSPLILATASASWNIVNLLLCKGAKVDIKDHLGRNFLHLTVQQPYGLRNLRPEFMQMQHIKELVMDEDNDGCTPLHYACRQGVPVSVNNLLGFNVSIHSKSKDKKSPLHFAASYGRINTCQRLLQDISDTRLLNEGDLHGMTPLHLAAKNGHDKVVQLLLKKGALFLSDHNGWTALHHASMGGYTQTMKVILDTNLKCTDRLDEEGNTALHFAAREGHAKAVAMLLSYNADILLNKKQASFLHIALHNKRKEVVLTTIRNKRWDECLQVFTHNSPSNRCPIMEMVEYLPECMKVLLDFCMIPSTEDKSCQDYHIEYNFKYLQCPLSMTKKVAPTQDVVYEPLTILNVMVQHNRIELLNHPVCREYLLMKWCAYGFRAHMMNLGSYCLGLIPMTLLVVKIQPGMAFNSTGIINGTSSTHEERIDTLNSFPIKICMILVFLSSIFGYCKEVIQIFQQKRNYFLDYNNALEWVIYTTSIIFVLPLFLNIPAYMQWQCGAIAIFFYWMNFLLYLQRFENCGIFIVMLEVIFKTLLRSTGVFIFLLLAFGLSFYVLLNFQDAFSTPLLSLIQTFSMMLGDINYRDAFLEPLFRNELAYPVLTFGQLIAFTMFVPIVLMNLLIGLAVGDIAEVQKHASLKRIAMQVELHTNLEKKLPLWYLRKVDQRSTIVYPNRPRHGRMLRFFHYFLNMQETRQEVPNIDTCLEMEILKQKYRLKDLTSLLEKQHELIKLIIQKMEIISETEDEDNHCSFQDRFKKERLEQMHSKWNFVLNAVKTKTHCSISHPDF
T1 sequence (Q704Y3 whole entry): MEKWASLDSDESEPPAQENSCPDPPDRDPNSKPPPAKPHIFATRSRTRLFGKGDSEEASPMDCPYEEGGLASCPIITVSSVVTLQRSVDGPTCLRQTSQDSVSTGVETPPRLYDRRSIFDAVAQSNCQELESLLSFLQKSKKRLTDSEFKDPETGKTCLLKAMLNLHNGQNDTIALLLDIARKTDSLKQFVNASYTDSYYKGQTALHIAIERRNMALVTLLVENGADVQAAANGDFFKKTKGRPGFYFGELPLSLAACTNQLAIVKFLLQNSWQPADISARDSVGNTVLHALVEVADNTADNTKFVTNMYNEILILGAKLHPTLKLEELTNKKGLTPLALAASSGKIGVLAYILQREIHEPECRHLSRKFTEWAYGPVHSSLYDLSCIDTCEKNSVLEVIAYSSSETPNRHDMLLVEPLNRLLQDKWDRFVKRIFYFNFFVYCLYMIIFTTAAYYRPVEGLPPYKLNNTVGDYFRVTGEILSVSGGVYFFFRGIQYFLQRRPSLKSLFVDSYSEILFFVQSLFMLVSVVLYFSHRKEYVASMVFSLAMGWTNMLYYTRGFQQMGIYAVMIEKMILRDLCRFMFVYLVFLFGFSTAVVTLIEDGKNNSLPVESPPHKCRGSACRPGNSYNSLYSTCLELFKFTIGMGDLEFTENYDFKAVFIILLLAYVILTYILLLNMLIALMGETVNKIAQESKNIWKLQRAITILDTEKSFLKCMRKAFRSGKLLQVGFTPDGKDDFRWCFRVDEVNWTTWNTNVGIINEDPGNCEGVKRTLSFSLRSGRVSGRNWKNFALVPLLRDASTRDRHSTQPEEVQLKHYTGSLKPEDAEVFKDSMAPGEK

- inhibition at 50 µM [1]: 49 ± 7%
Structure (SMILES): CCCCCCCC/C=C\CCCCCCCC(=O)N[C@@H](CC(N)=O)C(=O)O [C18:1-Asn]

Structure (SMILES): CCCCCCCC/C=C\CCCCCCCC(=O)N[C@H](CCC(N)=O)C(=O)O [C18:1-D-Gln]
- Fluo-4 calcium imaging in TRPV1-transfected HEK293A cells, 50 μM [2]: the unnatural enantiomer C18:1-D-Gln fully antagonized capsaicin-induced TRPV1 calcium flux

Structure (SMILES): CCCCC/C=C\C/C=C\C/C=C\C/C=C\CCCC(=O)N[C@@H](CO)C(=O)O [C20:4-Ser]
- inhibition at 50 µM [3]: 68 ± 8%

- inhibition at 50 µM [4]: 94 ± 5%
- IC50 [5]: 1300 nM
Structure (SMILES): CCCCCCCC/C=C\CCCCCCCC(=O)N[C@@H](CCC(N)=O)C(=O)O [C18:1-Gln, N-oleoyl-glutamine]

Structure (SMILES): CCCCC/C=C\C/C=C\C/C=C\C/C=C\CCCC(=O)N[C@@H](Cc1ccccc1)C(=O)O [C20:4-Phe]
- inhibition at 50 µM [3]: 87 ± 5%

Structure (SMILES): C=CCN=C=S [allyl isothiocyanate]
- Fluo-4 calcium imaging in transfected HEK293A cells, agonist at 10 μM [6]: only channel-transfected, RFP^+ cells, but not untransfected, RFP^− cells, exhibited a calcium flux in response to the corresponding agonist

Structure (SMILES): COc1cc(CNC(=O)CCCC/C=C/C(C)C)ccc1O [capsaicin]
- Fluo-4 calcium imaging in transfected HEK293A cells, agonist at 10 μM [7]: capsaicin treatment induced a robust increase in the intracellular calcium concentration in the TRPV1-transfected, RFP^+ cells

Structure (SMILES): CC(C)C[C@H](NC(=O)c1cc2ccccc2s1)C(=O)N1CCN(C(=O)[C@H](CO)NS(=O)(=O)c2ccc(Cl)cc2Cl)CC1 [GSK1016790A]
- Fluo-4 calcium imaging in transfected HEK293A cells, agonist at 0.2 μM [8]: only channel-transfected, RFP^+ cells, but not untransfected, RFP^− cells, exhibited a calcium flux in response to the corresponding agonist
